What was measured:
[1] = biological target: D(1A) dopamine receptor (Homo sapiens, UniProt P21728); assay: DRUGMATRIX: Dopamine D1 radioligand binding (ligand: [3H] SCH-23390); assay type: cell membranes, CHO, Membrane; conditions: cho; Not Active = under 50% inhibition at 10 µM
[2] = biological target: C-C chemokine receptor type 2 (Homo sapiens, UniProt P41597); assay type: cell membranes, CHO-K1, Membrane; conditions: cho-k1; note: in other assays of this panel Not Active means under 50% inhibition at 10 µM
[3] = biological target: Beta-2 adrenergic receptor (Homo sapiens, UniProt P07550); assay: DRUGMATRIX: Adrenergic beta2 radioligand binding (ligand: [3H] CGP-12177); assay type: cell membranes, CHO, Membrane; conditions: cho; Not Active = under 50% inhibition at 10 µM
[4] = biological target: T1, Leukotriene C4 synthase (Cavia porcellus, UniProt A6XA80); assay type: tissue-based, Lung;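 note: enzyme inhibition assay of leukotriene C4 synthase, using LTA4 as the substrate; in other assays of this panel Not Active means under 50% inhibition at 10 µM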
T1 sequence (A6XA80 whole entry): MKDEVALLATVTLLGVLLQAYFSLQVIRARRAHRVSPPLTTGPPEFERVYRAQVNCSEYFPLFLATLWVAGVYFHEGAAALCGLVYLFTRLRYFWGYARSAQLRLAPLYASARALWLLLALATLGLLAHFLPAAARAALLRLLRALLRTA

[5] = biological target: Acetylcholinesterase (Homo sapiens, UniProt P22303); assay: DRUGMATRIX: Acetylcholinesterase enzyme inhibition (substrate: acetylthiocholine); assay type: cell-based, HEK293; conditions: Not Active = under 50% inhibition at 10 µM
Chain of Acetylcholinesterase (P22303 whole entry): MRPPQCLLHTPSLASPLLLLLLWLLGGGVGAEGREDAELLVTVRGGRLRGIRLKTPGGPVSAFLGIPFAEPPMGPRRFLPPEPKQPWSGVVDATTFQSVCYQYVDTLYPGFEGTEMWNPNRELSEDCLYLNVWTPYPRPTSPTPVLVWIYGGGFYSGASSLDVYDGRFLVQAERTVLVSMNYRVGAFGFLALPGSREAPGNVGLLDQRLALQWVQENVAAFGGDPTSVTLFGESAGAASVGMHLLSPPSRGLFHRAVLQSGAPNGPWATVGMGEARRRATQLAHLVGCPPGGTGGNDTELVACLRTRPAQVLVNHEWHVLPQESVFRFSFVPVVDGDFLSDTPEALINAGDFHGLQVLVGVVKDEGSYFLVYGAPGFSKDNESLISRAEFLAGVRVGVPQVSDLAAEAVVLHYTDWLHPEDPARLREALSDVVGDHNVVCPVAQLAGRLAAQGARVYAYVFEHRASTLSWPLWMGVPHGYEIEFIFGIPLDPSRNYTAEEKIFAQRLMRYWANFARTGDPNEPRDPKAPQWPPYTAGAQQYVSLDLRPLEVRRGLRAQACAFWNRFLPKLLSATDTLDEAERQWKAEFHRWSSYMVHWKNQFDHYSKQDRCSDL

Chain of D(1A) dopamine receptor (P21728 whole entry): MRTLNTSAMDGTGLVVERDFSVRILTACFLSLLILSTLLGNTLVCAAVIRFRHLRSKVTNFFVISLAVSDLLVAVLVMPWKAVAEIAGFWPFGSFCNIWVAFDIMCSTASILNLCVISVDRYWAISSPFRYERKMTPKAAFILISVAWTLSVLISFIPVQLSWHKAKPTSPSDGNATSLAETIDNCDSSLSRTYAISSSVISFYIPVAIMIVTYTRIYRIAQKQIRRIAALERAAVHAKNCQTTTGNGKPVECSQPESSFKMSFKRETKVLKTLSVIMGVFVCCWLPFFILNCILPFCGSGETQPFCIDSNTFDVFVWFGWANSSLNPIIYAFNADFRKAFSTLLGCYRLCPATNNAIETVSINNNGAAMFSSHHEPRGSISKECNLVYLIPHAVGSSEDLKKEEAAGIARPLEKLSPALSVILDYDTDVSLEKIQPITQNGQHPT
Chain of C-C chemokine receptor type 2 (P41597 whole entry): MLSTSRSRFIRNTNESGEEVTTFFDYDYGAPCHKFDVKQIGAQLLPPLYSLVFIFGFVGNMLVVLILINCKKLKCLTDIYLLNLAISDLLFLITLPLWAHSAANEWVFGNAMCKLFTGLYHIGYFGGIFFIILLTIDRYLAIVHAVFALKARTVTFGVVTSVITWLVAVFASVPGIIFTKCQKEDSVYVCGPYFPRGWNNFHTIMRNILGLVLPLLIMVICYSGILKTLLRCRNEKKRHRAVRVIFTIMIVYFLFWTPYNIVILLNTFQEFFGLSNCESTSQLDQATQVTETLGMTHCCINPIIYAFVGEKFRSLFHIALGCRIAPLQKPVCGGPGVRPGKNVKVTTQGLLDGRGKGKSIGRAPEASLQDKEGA

Row | Compound | IC50 [1] | IC50 [2] | IC50 [3] | IC50 [4] | IC50 ([5]; hek293) | IC50 ([5]; read-out: IC50) | Ki [1] | Ki [2] | Ki [3] | Ki [4] | Ki ([5]; hek293)
1 | CC(C(=O)O)c1ccc(CC2CCCC2=O)cc1 (stereo not given) [LOXOPROFEN] | Not Active | Not Active | Not Active | Not Active | Not Active |  |  |  |  |  | 
2 | Cc1cccc(Nc2ccccc2C(=O)O)c1C [MEFENAMIC ACID] | Not Active | Not Active | Not Active | Not Active | Not Active |  |  |  |  |  | 
3 | CC(=O)O[C@]1(C(C)=O)CC[C@H]2[C@@H]3C=C(C)C4=CC(=O)CC[C@]4(C)[C@H]3CC[C@@]21C [MEGESTROL ACETATE] | Not Active | Not Active | Not Active | Not Active | Not Active |  |  |  |  |  | 
4 | COc1ccccc1OCC(O)COC(N)=O (stereo not given) [METHOCARBAMOL] | Not Active | Not Active | Not Active | Not Active | Not Active |  |  |  |  |  | 
5 | CN(Cc1cnc2nc(N)nc(N)c2n1)c1ccc(C(=O)N[C@@H](CCC(=O)O)C(=O)O)cc1 [METHOTREXATE] | Not Active | Not Active | Not Active | Not Active | Not Active |  |  |  |  |  | 
6 | COC(=O)c1ccccc1O [METHYL SALICYLATE] | Not Active | Not Active | Not Active | Not Active | Not Active |  |  |  |  |  | 
7 | COc1ccc2cc(CCC(C)=O)ccc2c1 [NABUMETONE] | Not Active | Not Active | Not Active | Not Active | Not Active |  |  |  |  |  | 
8 | O=C(O)c1cccnc1 [NIACIN] | Not Active | Not Active | Not Active | Not Active | Not Active |  |  |  |  |  | 
9 | CNC(=C[N+](=O)[O-])NCCSCc1csc(CN(C)C)n1 [NIZATIDINE] | Not Active | Not Active | Not Active | Not Active |  | 5.61 µM |  |  |  |  | 
10 | C[C@]12C/C(=C/O)C(=O)C[C@@H]1CC[C@@H]1[C@@H]2CC[C@@]2(C)[C@H]1CC[C@]2(C)O [OXYMETHOLONE] | Not Active | Not Active | Not Active | Not Active | Not Active |  |  |  |  |  | 
11 | CC(C)(CO)C(O)C(=O)NCCCO (stereo not given) [PANTHENOL] | Not Active | Not Active | Not Active | Not Active | Not Active |  |  |  |  |  | 
12 | COc1ccc(Cc2nccc3cc(OC)c(OC)cc23)cc1OC [PAPAVERINE] | Not Active | Not Active | Not Active | Not Active | Not Active |  |  |  |  |  | 
13 | OCCN1CCN(CCCN2c3ccccc3Sc3ccc(Cl)cc32)CC1 [PERPHENAZINE] | Not Active | Not Active | Not Active | Not Active | Not Active |  |  |  |  |  | 
14 | CCCCC1C(=O)N(c2ccccc2)N(c2ccccc2)C1=O [PHENYLBUTAZONE] | Not Active | Not Active | Not Active | Not Active | Not Active |  |  |  |  |  | 
15 | Cc1cccc(Nc2cc(Cl)nc(SCC(=O)O)n2)c1C [PIRINIXIC ACID] | Not Active | Not Active | Not Active | Not Active | Not Active |  |  |  |  |  | 
16 | CC[C@H](C)C(=O)O[C@H]1C[C@H](O)C=C2C=C[C@H](C)[C@H](CC[C@@H](O)C[C@@H](O)CC(=O)O)[C@H]21 [PRAVASTATIN] | Not Active | Not Active | Not Active | Not Active | Not Active |  |  |  |  |  | 
17 | CC(C)(Sc1cc(C(C)(C)C)c(O)c(C(C)(C)C)c1)Sc1cc(C(C)(C)C)c(O)c(C(C)(C)C)c1 [PROBUCOL] | Not Active | Not Active | Not Active | Not Active | Not Active |  |  |  |  |  | 
18 | COBALT(II) ACETYLACETONATE | Not Active | Not Active | Not Active | Not Active | Not Active |  | Not Active | Not Active | Not Active | Not Active | Not Active
19 | INSULIN HUMAN | Not Active | Not Active | Not Active | Not Active | Not Active |  | Not Active | Not Active | Not Active | Not Active | Not Active
20 | POLYVINYL ALCOHOL | Not Active | Not Active | Not Active | Not Active | Not Active |  | Not Active | Not Active | Not Active | Not Active | Not Active

— ChEMBL document CHEMBL1909046, “DrugMatrix in vitro pharmacology data”
